We go through 2 compounds from patent publication US8426606B2, “2′,2-bisthiazole non-nucleoside compounds, preparation methods, pharmaceutical compositions and uses as hepatitis virus inhibitors thereof” (Shanghai Institute of Materia Medica, Chinese Academy of …, priority 2010, dated 2013).

One series in a line: in vitro. Format: cell-based. The note with it: human. As to the method:
The anti-HCV activity assay was performed by using Huh7.5.1 cells (donated by WUHAN INSTITUTE of VIROLOGY, CHINESE ACADEMY OF SCIENCES) infected by HCV (J399E) inserted with enhanced green fluorescent protein (EGFP). The variation of the green fluorescence intensity was recorded on a microplate reader and cytotoxicity was measured at the same time, so as to evaluate the influence of the compound on the replication activity of HCV.
(§1) Huh7.5.1 cells (10% FBS, DMEM) at the concentration of 10^5 cells/ml were inoculated on a 96-well plate (Costar 3904) with 100 μl per well. 24 hours later, the supernatant of culture was sucked out, and 50 μl of virus supernatant with MOI=0.1 was added. 8 hours later, 50 μl of the testing drug was added and 100 μl of culture medium was supplemented. After incubation for 72 hours, the supernatant was sucked out, and read on a fluorescent microplate reader (Ex=488 nm, Em=516 nm). Then each well was added with 20 μl of MTT (5 mg/ml) and additional 50 μl of culture medium. 4 hours later, 100 μl of MTT lysis solution was added. 6 hours later, reading was performed at a wavelength of 570 nm.

Series [1] can be described thus: In vivo pharmacokinetic studies in rats (intragastric and intravenous). Set-up: species or system SD rats. The following applies: rat. As to the method:
(§2) Intragastric Administration Three healthy male SD rats having body weights of 200 g to 250 g were administered with a specimen drug with a dosage of 20 mg/kg and a volume of 10 ml/kg. The rats were fasted for 12 hours before administration and had the freedom to drink water. The venous blood with a volume of 0.3 ml was obtained from the retrobulbar venous plexus of the rats at 0.25 h, 0.5 h, 1.0 h, 2.0 h, 3.0 h, 4.0 h, 5.0 h, 7.0 h, 9.0 h and 24 h after the administration, put in a heparinized tube, and centrifuged for 10 minutes at 3500 rpm to separate the plasma, which was stored at −20° C. to be tested.
as §2, with “Intravenous Injection: Three healthy” for “Intragastric Administration Three healthy”, “dosage of 10 mg/kg and” for “dosage of 20 mg/kg and”, “volume of 5.0 ml/kg. The” for “volume of 10 ml/kg. The”, “rats at 5 min, 15 min, 0.5 h,” for “rats at 0.25 h, 0.5 h,”, “heparinized tube, centrifuged for” for “heparinized tube, and centrifuged for”

In the next series the test system is HCV (J399E). The experiment in a line: microbe, parasite or virus in culture. It counts as cell-based, Hepatitis C Virus. As to the method:
The variation of the green fluorescence intensity was recorded on a microplate reader and cytotoxicity was measured at the same time, so as to evaluate the influence of the compound on the replication activity of HCV.
Compounds to be tested were dissolved in DMSO to prepare a stock solution before the test. Upon using, the stock solution was diluted to a desired concentration with DMEM (Dulbecco's Modified Eagle Media, purchased from GibcoBRL company (Life Technologies, Grand Island, N.Y., USA)) containing 10% FBS (fetal bovine serum, purchased from Hyclone company (Logan, Utah, USA)).
Positive control: ribavirin (purchased from Sigma/Aldrich). It was dissolved in DMSO to prepare a stock solution and stored at −20° C. before use, and diluted to a desired concentration upon using.
as §1

A short description of series [2]: Cytotoxicity on HepG2.2.15 cells (MTT assay). Format: cell-based, Human. The note with it: human, read-out: CC50 (concentration at which 50% of cells was killed). As to the method: (§3) The anti-HBV activity assay of a specimen compound was performed in HepG2.2.15 cells stably transformed with the whole genome of HBV, including the determination of the cytotoxicity of the specimen compound (CC50) and the effect of the specimen compound on the replication level of HBV-DNA (IC50).
(§4) The Human hepatoma carcinoma cell HepG2.2.15 cell line stably transformed with the whole genome of HBV can stably secrete hepatitis B virosomes (containing DNA) in the supernatant of culture during culture. Both the antiviral activity and the cytotoxicity of the specimen drugs may be determined by detecting the amount of virus DNA secreted into the supernatant of culture by the cells under the intervention of an antiviral drug, in reference to the amount in control group that is the absence of the antiviral drug. A real-time fluorescent quantitation PCR assay was adopted to determine the concentration of a specimen drug at which 50% of the replication of HBV-DNA was inhibited (IC50), and a MTT assay was adopted to determine the concentration of a specimen drug at which 50% cytotoxicity occurs (CC50).
(§5) HepG2.2.15 cells were inoculated on a 96-well plate at 5×10^5 cells/ml. On the second day, the specimen drug was added. After the culture medium and the specimen drug having the same concentration as above were replaced periodically, on the eighth day, the supernatant of culture was collected to be tested. To the cells on the 96-well plate, MTT (5 mg/ml) is added. 4 hours later, MTT lysis solution was added (100 μl/well). The next day, OD570 was read on a microplate reader. The cytotoxicity of the specimen drug on HepG2.2.15 cells, the influence of specimen drug on cell growth, and the concentration of specimen drug at which 50% of cells were killed (CC50) were calculated in accordance with the OD value.
In general terms: Tetrazolium dyes change colour on reduction, which living cells bring about.

In another series the test system is HBV. Kind of series: Anti-HBV activity assay: HBV-DNA replication in HepG2.2.15 cells, fluorescent quantitation PCR of culture supernatant. Format: cell-based, Hepatitis B Virus. The note with it: for IC50: HBV-DNA in supernatant on the eighth day, read-out: IC50 (concentration at which 50% of the replication of HBV was inhibited). As to the method:
as §3, §4
The specimen drug was prepared into a solution having a concentration (400 μM) desired for the experiment before use. Six diluted concentrations were tested for each specimen drug. The clinical anti-hepatitis B virus drug Lamivudine was used as the positive control in experiment so as to determine whether the reaction is normal or not in each experiment.
as §5
A proper amount of the supernatant of culture was added into an isovolumic virus extract and mixed uniformly. The resulted mixture was boiled, and then centrifuged for 5 minutes at 10,000 rpm at room temperature. A proper amount of the obtained supernatant was used to perform PCR amplification, and meanwhile four standard samples of HBV-DNA were set up to make a standard curve. The inhibition of each specimen drug at various concentrations against the replication of HBV-DNA was calculated according to the detected replication value of the viral DNA, and then the half inhibition of the specimen drug was calculated to obtain its IC50.

The test system of another series is HepG2.2.15 cells. The experiment in a line: Cytotoxicity on HepG2.2.15 cells (MTT assay). Format: cell-based, Human. The following applies: read-out: CC50 (concentration at which 50% of cells was killed). As to the method:
as §3, §4, §5

Read-outs that look alike come from different tables or passages of the source. Where only a bound is given, the exact number is not on record here.

What is called bioavailability is dose-corrected exposure relative to a reference, in per cent. As for `CC(C)(O)Cc1sc(-c2nccs2)nc1C(=O)NCc1ccc(F)cc1` [Compound 391-2, N-(p-fluorobenzyl)-5-(2-hydroxy-2-methylpropyl)-2′,2-bisthiazole-4-formamide], the CC50 at 72 h in the series “in vitro” came to 134 µM. Also, the bioavailability in series [1] (plasma, po, male SD rats, 20 mg/kg intragastric, dosage normalized, calculated according to AUC0-t) is 76.5%. The IC50 in the series with HCV (J399E) (Hepatitis C virus, Huh-7.5.1, 72 h, read-out: IC50 (concentration at which 50% of the replication of HCV was inhibited)) amounted to 21.3 µM; in the series with HBV (Hepatitis B virus) it was 5.4 µM. Besides, the “SI (bioactivity selective index)” value is 6.3 in the series with HCV (J399E) (anti-HCV, Huh7.5.1 cells) and >18.5 with HBV (anti-HBV). The CC50 at 6 days in series [2] is > 100 µM.

In turn, `CC(C)Cc1sc(-c2nccs2)nc1C(=O)NCc1ccc(F)cc1` [Compound W28F, N-parafluorobenzyl-5-isobutyl-2′,2-bithiazole-4-formamide, reference compound] had an average oral bioavailability in series [1] (in vivo, 10 mg/kg) of 2.80%. Besides, the CC50 with HepG2.2.15 cells is > 33.3 µM. Further, the IC50 in the series on HBV came out at 2.6 µM.
